Assay type: physicochemical
Source text: c. Stabilizing the kit for longer shelf life.
Results: The wash buffer that enabled only three washing steps was the one that contained non-ionic detergent, this being the above-noted PBS-TWEEN buffer (see constituent no. (ii) in the above list).
This is also the case for the other reagents used in the improved kit, as mentioned above.

Row | storage stability at 4° C. (in words) | storage stability at 37° C. (in words) | Compound
1 | for one year | stable for one month | CCN(Cc1cccc(S(=O)(=O)[O-])c1)c1ccc(C(=C2C=CC(=[N+](CC)Cc3cccc(S(=O)(=O)[O-])c3)C=C2)c2ccccc2S(=O)(=O)[O-])cc1.[Na+].[Na+] [blue brilliant]
2 | for one year | stable for one month | O=S(=O)([O-])c1ccc(N=Nc2c(O)ccc3cc(S(=O)(=O)[O-])ccc23)cc1.[Na+].[Na+] [yellow sunset]

From patent US6699678B1, “Chlamydia trachomatis specific peptides and their use in diagnostic assays” (Savyon Diagnostics Ltd., priority 1997, dated 2004)
